Key:
[1] = target: IKZF2 (Homo sapiens, UniProt Q96SW2+Q9UKS7); test: HEK293 HiBiT in vitro degradation of IKZF2; assay type: cell-based; parameters: expressed in transfected cells; details: for Dmax: HEK293, HEK293 HiBiT, maximum degradation at the highest concentration tested; for DC50: HEK293 HiBiT, 18-24 hr incubation, normalized to DMSO control, read-out: IKZF2 EC50
Summary of the method: (§1)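 Degradation was scored as loss of HiBiT signal from C-terminally tagged IKZF1, IKZF2 or SALL4 in doxycycline-induced Flp-In T-REx HEK293 cells after overnight (18-24 h) compound treatment. EC50 and Dmax were derived from the luminescence.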

[2] = target: T1, IKZF1 (Homo sapiens, UniProt Q13422+Q96SW2); test: HEK293 HiBiT in vitro degradation of IKZF1; assay type: cell-based; details: for Dmax: HEK293, HEK293 HiBiT, maximum degradation at the highest concentration tested; for DC50: HEK293 HiBiT, 18-24 hr incubation, normalized to DMSO control, read-out: IKZF1 EC50
T1 construct: expressed in transfected cells
T1 sequence (Q13422 whole entry): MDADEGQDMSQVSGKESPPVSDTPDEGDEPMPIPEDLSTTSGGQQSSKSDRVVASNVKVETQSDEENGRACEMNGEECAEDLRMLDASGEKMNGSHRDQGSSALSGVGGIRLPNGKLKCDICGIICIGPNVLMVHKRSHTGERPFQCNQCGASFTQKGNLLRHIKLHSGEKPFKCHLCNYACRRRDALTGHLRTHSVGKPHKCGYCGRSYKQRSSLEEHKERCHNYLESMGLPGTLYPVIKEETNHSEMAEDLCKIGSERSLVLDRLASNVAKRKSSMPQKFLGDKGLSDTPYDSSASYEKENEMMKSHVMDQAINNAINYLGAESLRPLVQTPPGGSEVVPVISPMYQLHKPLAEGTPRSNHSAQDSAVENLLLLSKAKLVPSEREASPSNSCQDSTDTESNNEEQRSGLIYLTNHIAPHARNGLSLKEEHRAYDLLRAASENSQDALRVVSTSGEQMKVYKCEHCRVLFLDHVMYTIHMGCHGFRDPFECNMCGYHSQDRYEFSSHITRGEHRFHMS
T1 sequence (Q96SW2 whole entry): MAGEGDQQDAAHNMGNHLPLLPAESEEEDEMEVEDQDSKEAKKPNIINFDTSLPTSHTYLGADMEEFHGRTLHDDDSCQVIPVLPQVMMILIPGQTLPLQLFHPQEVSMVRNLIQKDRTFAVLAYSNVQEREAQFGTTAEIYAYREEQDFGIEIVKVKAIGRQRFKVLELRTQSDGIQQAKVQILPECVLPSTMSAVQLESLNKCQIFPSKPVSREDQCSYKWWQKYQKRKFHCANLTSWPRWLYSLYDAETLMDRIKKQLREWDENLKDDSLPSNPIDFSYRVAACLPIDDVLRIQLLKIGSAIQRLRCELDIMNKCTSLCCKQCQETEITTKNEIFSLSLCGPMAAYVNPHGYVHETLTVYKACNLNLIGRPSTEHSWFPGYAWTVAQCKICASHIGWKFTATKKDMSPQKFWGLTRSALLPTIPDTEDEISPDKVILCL
T1 sequence (Q16531 whole entry partner): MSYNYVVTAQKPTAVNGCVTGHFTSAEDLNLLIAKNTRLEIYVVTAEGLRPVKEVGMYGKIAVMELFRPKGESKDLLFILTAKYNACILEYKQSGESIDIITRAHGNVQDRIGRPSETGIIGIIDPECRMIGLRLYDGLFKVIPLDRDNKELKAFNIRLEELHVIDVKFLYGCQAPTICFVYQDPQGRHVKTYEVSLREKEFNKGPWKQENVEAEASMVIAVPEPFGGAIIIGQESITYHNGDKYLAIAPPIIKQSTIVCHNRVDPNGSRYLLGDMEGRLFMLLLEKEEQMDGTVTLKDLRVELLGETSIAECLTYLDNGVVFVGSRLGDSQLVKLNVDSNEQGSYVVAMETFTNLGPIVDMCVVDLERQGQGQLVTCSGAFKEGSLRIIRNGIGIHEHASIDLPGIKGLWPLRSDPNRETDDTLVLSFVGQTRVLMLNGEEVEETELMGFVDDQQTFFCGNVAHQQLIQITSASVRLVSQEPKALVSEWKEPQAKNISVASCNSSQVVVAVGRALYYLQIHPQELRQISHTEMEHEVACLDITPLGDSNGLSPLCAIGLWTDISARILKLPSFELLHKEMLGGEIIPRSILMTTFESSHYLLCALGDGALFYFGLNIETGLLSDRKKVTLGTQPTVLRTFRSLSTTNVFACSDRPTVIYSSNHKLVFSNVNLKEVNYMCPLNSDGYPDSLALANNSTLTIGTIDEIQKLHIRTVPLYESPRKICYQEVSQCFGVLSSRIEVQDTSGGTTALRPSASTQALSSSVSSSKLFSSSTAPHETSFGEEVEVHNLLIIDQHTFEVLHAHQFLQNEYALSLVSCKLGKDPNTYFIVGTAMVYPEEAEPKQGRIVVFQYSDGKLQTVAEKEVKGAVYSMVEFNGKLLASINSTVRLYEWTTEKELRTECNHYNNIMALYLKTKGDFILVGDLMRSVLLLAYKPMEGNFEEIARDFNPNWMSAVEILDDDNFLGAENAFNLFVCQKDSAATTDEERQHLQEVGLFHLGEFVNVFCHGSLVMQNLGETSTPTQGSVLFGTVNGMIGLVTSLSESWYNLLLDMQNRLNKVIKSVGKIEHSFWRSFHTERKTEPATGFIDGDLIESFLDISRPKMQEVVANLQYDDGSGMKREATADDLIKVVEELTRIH
Summary of the method: as §1

Chain of IKZF2 (Q9UKS7 1-500 isoform Q9UKS7-2): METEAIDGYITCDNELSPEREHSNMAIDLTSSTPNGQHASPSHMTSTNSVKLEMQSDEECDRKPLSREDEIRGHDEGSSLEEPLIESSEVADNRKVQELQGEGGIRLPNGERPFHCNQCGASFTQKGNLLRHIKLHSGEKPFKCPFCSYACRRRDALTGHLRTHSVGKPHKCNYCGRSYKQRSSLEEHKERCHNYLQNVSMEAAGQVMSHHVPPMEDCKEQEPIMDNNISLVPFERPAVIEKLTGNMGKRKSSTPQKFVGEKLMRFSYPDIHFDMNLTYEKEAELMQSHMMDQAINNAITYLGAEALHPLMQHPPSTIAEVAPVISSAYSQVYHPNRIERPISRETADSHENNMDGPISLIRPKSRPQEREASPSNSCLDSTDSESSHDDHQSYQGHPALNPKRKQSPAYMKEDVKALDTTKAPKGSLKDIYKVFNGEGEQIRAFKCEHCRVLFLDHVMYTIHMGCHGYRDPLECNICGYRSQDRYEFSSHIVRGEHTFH
Chain of IKZF2 (Q96SW2 whole entry): as the sequence (Q96SW2 whole entry) above
Chain of IKZF2 (Q16531 whole entry partner): as the sequence (Q16531 whole entry partner) above

SMILES: Cn1nccc1CN[C@H]1CCCC[C@@H]1Cc1ccc2c(c1)CN(C1CCC(=O)NC1=O)C2=O (stereo partly drawn) [Example 39, 3-(5-(((1R,2S)-2-(((1-methyl-1H-pyrazol-5-yl)methyl)amino)cyclohexyl)methyl)-1-oxoisoindolin-2-yl)piperidine-2,6-dione]
- Dmax [1]: 86%
- DC50 [1]: 47 nM
- Dmax [2]: 34%
- DC50 [2]: 265 nM

SMILES: O=C1CCC(N2Cc3cc(C[C@H]4CCCC[C@@H]4NCc4ccncc4)ccc3C2=O)C(=O)N1 (stereo partly drawn) [Example 40, 3-(1-oxo-5-(((1R,2S)-2-((pyridin-4-ylmethyl)amino)cyclohexyl)methyl)isoindolin-2-yl)piperidine-2,6-dione]
- Dmax [1]: 81%
- DC50 [1]: 45 nM
- DC50 [2]: > 1000 nM

SMILES: O=C1CCC(N2Cc3cc(C[C@H]4CCCC[C@@H]4NCc4cccnc4)ccc3C2=O)C(=O)N1 (stereo partly drawn) [Example 41, 3-(1-oxo-5-(((1R,2S)-2-((pyridin-3-ylmethyl)amino)cyclohexyl)methyl)isoindolin-2-yl)piperidine-2,6-dione]
- Dmax [1]: 90%
- DC50 [1]: 24 nM
- Dmax [2]: 44%
- DC50 [2]: 216 nM

SMILES: Cn1cc(CN[C@H]2CCCC[C@@H]2Cc2ccc3c(c2)CN(C2CCC(=O)NC2=O)C3=O)cn1 (stereo partly drawn) [Example 42, 3-(5-(((1R,2S)-2-(((1-methyl-1H-pyrazol-4-yl)methyl)amino)cyclohexyl)methyl)-1-oxoisoindolin-2-yl)piperidine-2,6-dione]
- Dmax [1]: 78%
- DC50 [1]: 126 nM
- DC50 [2]: > 1000 nM

SMILES: O=C1CCC(N2Cc3cc(C[C@H]4CCCC[C@@H]4NCc4c(F)cncc4F)ccc3C2=O)C(=O)N1 (stereo partly drawn) [Example 43, 3-(5-(((1R,2S)-2-(((3,5-difluoropyridin-4-yl)methyl)amino)cyclohexyl)methyl)-1-oxoisoindolin-2-yl)piperidine-2,6-dione]
- Dmax [1]: 45%
- DC50 [1]: 91 nM
- DC50 [2]: > 1000 nM

SMILES: O=C1CCC(N2Cc3cc(C[C@H]4CCCC[C@@H]4NCc4ncc(F)cc4F)ccc3C2=O)C(=O)N1 (stereo partly drawn) [Example 44, 3-(5-(((1R,2S)-2-(((3,5-difluoropyridin-2-yl)methyl)amino)cyclohexyl)methyl)-1-oxoisoindolin-2-yl)piperidine-2,6-dione]
- Dmax [1]: 60%
- DC50 [1]: 67 nM
- DC50 [2]: > 1000 nM

SMILES: O=C1CCC(N2Cc3cc(C[C@H]4CCCC[C@@H]4NCc4ccccn4)ccc3C2=O)C(=O)N1 (stereo partly drawn) [Example 45, 3-(1-oxo-5-(((1R,2S)-2-((pyridin-2-ylmethyl)amino)cyclohexyl)methyl)isoindolin-2-yl)piperidine-2,6-dione]
- Dmax [1]: 71%
- DC50 [1]: 131 nM
- DC50 [2]: > 1000 nM

SMILES: O=C1CCC(N2Cc3cc(C[C@H]4CCCC[C@@H]4NC4CC4)ccc3C2=O)C(=O)N1 (stereo partly drawn) [Example 47, 3-(5-(((1R,2S)-2-(cyclopropylamino)cyclohexyl)methyl)-1-oxoisoindolin-2-yl)piperidine-2,6-dione]
- Dmax [1]: 93%
- DC50 [1]: 6 nM
- DC50 [2]: > 1000 nM

SMILES: O=C1CCC(N2Cc3cc(C[C@H]4CCCC[C@@H]4NC4CCC4)ccc3C2=O)C(=O)N1 (stereo partly drawn) [Example 48, 3-(5-(((1R,2S)-2-(cyclobutylamino)cyclohexyl)methyl)-1-oxoisoindolin-2-yl)piperidine-2,6-dione]
- Dmax [1]: 96%
- DC50 [1]: 24 nM
- DC50 [2]: > 1000 nM

SMILES: O=C1CCC(N2Cc3cc(C[C@H]4CCCC[C@@H]4NCc4ccc(F)cn4)ccc3C2=O)C(=O)N1 (stereo partly drawn) [Example 49, 3-(5-(((1R,2S)-2-(((5-fluoropyridin-2-yl)methyl)amino)cyclohexyl)methyl)-1-oxoisoindolin-2-yl)piperidine-2,6-dione]
- Dmax [1]: 66%
- DC50 [1]: 88 nM
- DC50 [2]: > 1000 nM

SMILES: O=C1CCC(N2Cc3cc(C[C@H]4CCCC[C@@H]4NCc4ncccc4F)ccc3C2=O)C(=O)N1 (stereo partly drawn) [Example 50, 3-(5-(((1R,2S)-2-(((3-fluoropyridin-2-yl)methyl)amino)cyclohexyl)methyl)-1-oxoisoindolin-2-yl)piperidine-2,6-dione]
- Dmax [1]: 57%
- DC50 [1]: 111 nM
- DC50 [2]: > 1000 nM

SMILES: O=C1CCC(N2Cc3cc(C[C@H]4CCCC[C@@H]4NCc4cncc(F)c4)ccc3C2=O)C(=O)N1 (stereo partly drawn) [Example 51, 3-(5-(((1R,2S)-2-(((5-fluoropyridin-3-yl)methyl)amino)cyclohexyl)methyl)-1-oxoisoindolin-2-yl)piperidine-2,6-dione]
- Dmax [1]: 80%
- DC50 [1]: 45 nM
- DC50 [2]: > 1000 nM

SMILES: CC(C)N[C@H]1CC=CC[C@@H]1Cc1ccc2c(c1)CN(C1CCC(=O)NC1=O)C2=O (stereo partly drawn) [Example 54, 3-(5-(((1R,6S)-6-(isopropylamino)cyclohex-3-en-1-yl)methyl)-1-oxoisoindolin-2-yl)piperidine-2,6-dione]
- Dmax [1]: 86%
- DC50 [1]: 31 nM
- DC50 [2]: > 1000 nM

SMILES: O=C1CCC(N2Cc3cc(C[C@H]4CCCC[C@@H]4N4CC(c5ccccc5)C4)ccc3C2=O)C(=O)N1 (stereo partly drawn) [Example 55, 3-(1-oxo-5-(((1R,2S)-2-(3-phenylazetidin-1-yl)cyclohexyl)methyl)isoindolin-2-yl)piperidine-2,6-dione]
- Dmax [1]: 87%
- DC50 [1]: 25 nM
- DC50 [2]: > 1000 nM

SMILES: CC(C)(C)CN[C@H]1CCCC[C@@H]1Cc1ccc2c(c1)CN(C1CCC(=O)NC1=O)C2=O (stereo partly drawn) [Example 57, 3-(5-(((1R,2S)-2-(neopentylamino)cyclohexyl)methyl)-1-oxoisoindolin-2-yl)piperidine-2,6-dione]
- Dmax [1]: 89%
- DC50 [1]: 25 nM
- DC50 [2]: > 1000 nM

SMILES: O=C1CCC(N2Cc3cc(C[C@H]4CCCC[C@@H]4NCc4cccnc4C(F)(F)F)ccc3C2=O)C(=O)N1 (stereo partly drawn) [Example 58, 3-(1-oxo-5-(((1R,2S)-2-(((2-(trifluoromethyl)pyridin-3-yl)methyl)amino)cyclohexyl)methyl)isoindolin-2-yl)piperidine-2,6-dione]
- Dmax [1]: 75%
- DC50 [1]: 46 nM
- Dmax [2]: 34%
- DC50 [2]: 206 nM

SMILES: O=C1CCC(N2Cc3cc(C[C@H]4CCCC[C@@H]4NCc4cnccn4)ccc3C2=O)C(=O)N1 (stereo partly drawn) [Example 59, 3-(1-oxo-5-(((1R,2S)-2-((pyrazin-2-ylmethyl)amino)cyclohexyl)methyl)isoindolin-2-yl)piperidine-2,6-dione]
- Dmax [1]: 77%
- DC50 [1]: 75 nM
- DC50 [2]: > 1000 nM

SMILES: O=C1CCC(N2Cc3cc(C[C@H]4CCCC[C@@H]4NCC4OCCO4)ccc3C2=O)C(=O)N1 (stereo partly drawn) [Example 60, 3-(5-(((1R,2S)-2-(((1,3-dioxolan-2-yl)methyl)amino)cyclohexyl)methyl)-1-oxoisoindolin-2-yl)piperidine-2,6-dione]
- Dmax [1]: 63%
- DC50 [1]: 65 nM
- DC50 [2]: > 1000 nM

SMILES: C[C@@H](N[C@H]1CCCC[C@@H]1Cc1ccc2c(c1)CN(C1CCC(=O)NC1=O)C2=O)c1ccccc1 (stereo partly drawn) [Example 61, 3-(1-oxo-5-(((1R,2S)-2-(((R)-1-phenylethyl)amino)cyclohexyl)methyl)isoindolin-2-yl)piperidine-2,6-dione]
- Dmax [1]: 95%
- DC50 [1]: 23 nM
- DC50 [2]: > 1000 nM

SMILES: O=C1CCC(N2Cc3cc(C[C@H]4CCCC[C@@H]4NCc4cccnc4F)ccc3C2=O)C(=O)N1 (stereo partly shown) [Example 62]
- Dmax [1]: 79%
- DC50 [1]: 56 nM
- DC50 [2]: > 1000 nM

SMILES: O=C1CCC(N2Cc3cc(C[C@H]4CCCC[C@@H]4NCCOc4ccccc4Cl)ccc3C2=O)C(=O)N1 (stereo partly shown) [Example 65]
- Dmax [1]: 64%
- DC50 [1]: 48 nM
- DC50 [2]: > 1000 nM

SMILES: C[C@H](N[C@H]1CCCC[C@@H]1Cc1ccc2c(c1)CN(C1CCC(=O)NC1=O)C2=O)c1ccccc1 (stereo partly drawn) [Example 66, 3-(1-oxo-5-(((1R,2S)-2-(((S)-1-phenylethyl)amino)cyclohexyl)methyl)isoindolin-2-yl)piperidine-2,6-dione]
- Dmax [1]: 89%
- DC50 [1]: 17 nM
- DC50 [2]: > 1000 nM

SMILES: O=C1CCC(N2Cc3cc(C[C@H]4CCCC[C@@H]4N4CC(OCC5CC5)C4)ccc3C2=O)C(=O)N1 (stereo partly drawn) [Example 67, 3-(5-(((1R,2S)-2-(3-(cyclopropylmethoxy)azetidin-1-yl)cyclohexyl)methyl)-1-oxo-isoindolin-2-yl)piperidine-2,6-dione]
- Dmax [1]: 74%
- DC50 [1]: 30 nM
- DC50 [2]: > 1000 nM

SMILES: O=C1CCC(N2Cc3cc(C[C@H]4CCCC[C@@H]4NCC4COC4)ccc3C2=O)C(=O)N1 (stereo partly drawn) [Example 68, 3-(5-(((1R,2S)-2-((oxetan-3-ylmethyl)amino)cyclohexyl)methyl)-1-oxoisoindolin-2-yl)piperidine-2,6-dione]
- Dmax [1]: 91%
- DC50 [1]: 31 nM
- DC50 [2]: > 1000 nM

SMILES: O=C1CCC(N2Cc3cc(C[C@H]4CCCC[C@@H]4NCC4CCOC4)ccc3C2=O)C(=O)N1 (stereo partly shown) [Example 69]
- Dmax [1]: 91%
- DC50 [1]: 19 nM
- DC50 [2]: > 1000 nM

SMILES: O=C1CCC(N2Cc3cc(C[C@H]4CCCC[C@@H]4N(CC4CCOCC4)CC4CCOCC4)ccc3C2=O)C(=O)N1 (stereo partly shown) [Example 70]
- Dmax [1]: 48%
- DC50 [1]: 80 nM
- DC50 [2]: > 1000 nM

SMILES: O=C1CCC(N2Cc3cc(C[C@H]4CCCC[C@@H]4NCC4CCOCC4)ccc3C2=O)C(=O)N1 (stereo partly shown) [Example 71]
- Dmax [1]: 89%
- DC50 [1]: 37 nM
- DC50 [2]: > 1000 nM

SMILES: O=C1CCC(N2Cc3cc(C[C@H]4CCCC[C@@H]4NC4COC4)ccc3C2=O)C(=O)N1 (stereo partly shown) [Example 72]
- Dmax [1]: 83%
- DC50 [1]: 35 nM
- DC50 [2]: > 1000 nM

SMILES: O=C1CCC(N2Cc3cc(C[C@H]4CCCC[C@@H]4NC4CCOC4)ccc3C2=O)C(=O)N1 (stereo partly shown) [Example 73]
- Dmax [1]: 95%
- DC50 [1]: 7 nM
- DC50 [2]: > 1000 nM

SMILES: CCOC1CC(N[C@H]2CCCC[C@@H]2Cc2ccc3c(c2)CN(C2CCC(=O)NC2=O)C3=O)C1 (stereo partly shown) [Example 75]
- Dmax [1]: 95%
- DC50 [1]: 7 nM
- Dmax [2]: 51%
- DC50 [2]: 888 nM

SMILES: COc1ccccc1CCN[C@H]1CCCC[C@@H]1Cc1ccc2c(c1)CN(C1CCC(=O)NC1=O)C2=O (stereo partly shown) [Example 76]
- Dmax [1]: 84%
- DC50 [1]: 34 nM
- DC50 [2]: > 1000 nM
